In ChEMBL document CHEMBL1759834, “Synthesis, stereochemistry, antimicrobial evaluation and QSAR studies of 2,6-diaryltetrahydropyran-4-one thiosemicarbazones” (2011):
In brackets after ≈: the same amount, converted by molar mass.

Legend:
Staphylococcus aureus = experiment: Antibacterial activity against Staphylococcus aureus ATCC 25825 after 24 hrs by twofold serial dilution method; assay type: functional
Escherichia coli = experiment: Antibacterial activity against Escherichia coli ATCC 25835 after 24 hrs by twofold serial dilution method; assay type: functional
Pseudomonas aeruginosa = experiment: Antibacterial activity against Pseudomonas aeruginosa ATCC 10145 after 24 hrs by twofold serial dilution method; assay type: functional
Salmonella typhi = experiment: Antibacterial activity against Salmonella typhi ATCC 24915 after 24 hrs by twofold serial dilution method; assay type: functional, Salmonella enterica subsp. enterica serovar Typhi; conditions: Salmonella enterica, ATCC 24915, 24 h
Bacillus subtilis = experiment: Antibacterial activity against Bacillus subtilis ATCC 451 after 24 hrs by twofold serial dilution method; assay type: functional
Klebsiella pneumoniae = experiment: Antibacterial activity against Klebsiella pneumoniae ATCC 15490 after 24 hrs by twofold serial dilution method; assay type: functional
Cryptococcus neoformans = experiment: Antifungal activity against Cryptococcus neoformans after 72 to 96 hrs by twofold serial dilution method; assay type: functional
Candida albicans = experiment: Antifungal activity against Candida albicans after 24 hrs by twofold serial dilution method; assay type: functional
Aspergillus niger = experiment: Antifungal activity against Aspergillus niger after 72 to 96 hrs by twofold serial dilution method; assay type: functional

C[C@@H]1/C(=N\NC(N)=S)[C@@H](C)[C@H](c2ccc(Br)cc2)O[C@@H]1c1ccc(Br)cc1
-logMIC (Staphylococcus aureus): 4.602 | MIC (Staphylococcus aureus; Staphylococcus aureus, ATCC 25825, 24 h): 25 µg/mL (≈ 48.9 µM) | -logMIC (Escherichia coli): 4.301 | MIC (Escherichia coli; Escherichia coli, ATCC 25835, 24 h): 50 µg/mL (≈ 97.8 µM) | -logMIC (Pseudomonas aeruginosa): 4.903 | MIC (Pseudomonas aeruginosa; Pseudomonas aeruginosa, ATCC 10145, 24 h): 12.5 µg/mL (≈ 24.4 µM) | MIC (Salmonella typhi): 25 µg/mL (≈ 48.9 µM) | -logMIC (Bacillus subtilis): 4.301 | MIC (Bacillus subtilis; Bacillus subtilis, ATCC 451, 24 h): 50 µg/mL (≈ 97.8 µM) | -logMIC (Klebsiella pneumoniae): 4.602 | MIC (Klebsiella pneumoniae; Klebsiella pneumoniae, ATCC 15490, 24 h): 25 µg/mL (≈ 48.9 µM) | -logMIC (Cryptococcus neoformans): 4.301 | MIC (Cryptococcus neoformans; Cryptococcus neoformans): 50 µg/mL (≈ 97.8 µM) | -logMIC (Candida albicans): 4.301 | MIC (Candida albicans; Candida albicans, 24 h): 50 µg/mL (≈ 97.8 µM) | -logMIC (Aspergillus niger): 3.698 | MIC (Aspergillus niger; Aspergillus niger): 200 µg/mL (≈ 391 µM)
